{"source": "patent US11985974B2", "about": "“Antimicrobial ferulic acid derivatives and uses thereof” (WISCONSIN ALUMNI RESEARCH FOUNDATION, priority 2014, dated 2024)", "key": {"[1]": {"test_system": "Saccharomyces cerevisiae", "assay": "Growth inhibition of S. cerevisiae control strain by diferulates", "format": "cell-based", "conditions": "for bioactivity against S. cerevisiae: 1 mg/mL", "procedure": "The diferulate compounds tested were synthesized as described by Lu et al. (2012) and resuspended in DMSO. Caspofungin, nikkomycin Z, and MMS were purchased from Sigma-Aldrich. Echinocandin B was a gift from O. Kondo (Chugai Pharmaceuticals, Tokyo, Japan). Micafungin was provided by Astellas Pharma. Diferulates were initially screened at a concentration of 1 mg/mL to determine bioactivity. Cells of Saccharomyces cerevisiae (MATα pdr1Δ::natMX pdr3Δ::KLURA3 snq2Δ::KI.LEU2 can1Δ::STE2pr-Sp_his5 lyp1Δ his3Δ1 leu2Δ0 ura3Δ0 met15Δ0), referred to as the control strain, were grown in 200-μL cultures at 30° C. in YPD with a drug or DMSO control. Plates were read on a TECAN M1000 over a 48-h growth period. The specific growth rate was calculated using GCAT analysis software (https://gcat3-pub.glbrc.org/) (Sato et al. 2014). When presented, IC50 values for growth rate inhibition were calculated from triplicate eight-point dose curves and SigmaPlot 12.0. When presented, error bars are means±SEs of at least three replicates."}, "[2]": {"test_system": "S. sclerotiorum strain 1980", "assay": "Growth inhibition of S. sclerotiorum in liquid and agar culture", "format": "cell-based, Sclerotinia sclerotiorum", "conditions": "0, 125, 250, 500 μg/mL, 48 h, P<0.01", "procedure": "To test inhibition in liquid culture, a dose curve of 0, 125, 250, and 500 μg/mL poacic acid in 100 mL potato dextrose broth (n=3) was used. Cultures of S. sclerotiorum strain 1980 were inoculated with 100 μL homogenized mycelia and grown at 25° C. for 48 h. The mycelia in the liquid media were dried and weighed. The growth inhibition of poacic acid on solid agar cultures (potato dextrose agar) was assessed by generating replicate plates (n=3) containing 0, 125, 250, and 500 μg/mL poacic acid. Plates were inoculated with an actively growing plug of S. sclerotiorum and grown at 25° C. The mycelial radial growth after 48 h was measured Inhibition of S. sclerotiorum in planta was tested by inoculating detached soybean leaves of the commercial variety Williams 82 with an agar plug of actively growing S. sclerotiorum mycelia. Leaves were treated one time before inoculation with either an aerosol spray of water with DMSO (control) or a 500 μg/mL solution of poacic acid. Leaves were incubated in a moist environment, and lesion development was monitored up to 120 h postinoculation. […] The growth inhibition of poacic acid was assessed at 0, 500, 1,000, and 1,500 μg/mL in replicate plates (n=3). […] Colony diameter was monitored for each treatment in a time-course experiment. […]"}, "[3]": {"test_system": "β-1,3-glucan synthesis", "assay": "In vivo β-1,3-glucan synthesis (14C-glucose incorporation)", "format": "cell-based, Saccharomyces cerevisiae", "conditions": "250 μg/mL, 2 h, 25° C.", "procedure": "Inhibition of in vivo β-1,3-glucan synthesis was measured as described previously with slight modification (n=3) (Abe et al. 2003). Yeast cells (his3Δ) were grown in YPD to early log phase at 25° C. The cultured cells were diluted to 1×10^7 cells per 1 mL with 1 mL of YPD medium containing one-tenth the glucose containing 23.125 kBq [14C] glucose (ARC0122; American Radiolabeled Chemicals) and test compounds [250 μg/mL for poacic acid, 4 μg/mL for echinocandin B, 30 mM for hydroxyurea (negative control), or 0.4% (vol/vol) DMSO as a solvent control]. The cells were radiolabeled by culturing at 25° C. for 2 h. The labeled cells were harvested and incubated with 1 N NaOH at 80° C. for 30 min. The insoluble pellets were resuspended in 10 mM Tris·HCl, pH 7.5, containing 5 mg/mL zymolyase 100T (Seikagaku) and incubated at 37° C. for 18 h. […] The flow-through fraction was mixed with scintillation mixture (Ultima Gold; PerkinElmer), and radioactivity was measured by a scintillation counter (LSC-6100; Aloka). The differences in the incorporation rates in samples were normalized by ΔOD600 measured before and after the labeling period."}, "[4]": {"test_system": "Saccharomyces cerevisiae", "assay": "Synergy screening", "format": "cell-based", "procedure": "To test for synergy, a 6×6-dose matrix was initially used to identify potentially synergistic dose combinations, and these points were then confirmed in triplicate. Cultures (200 μL) were grown with combinations of poacic acid (125 μg/mL), caspofungin (12.5 ng/mL), and fluconazole (3.8 μg/mL), and the ODs of relevant single-agent and solvent controls were measured after 24 h. Synergy was determined by comparing actual OD in the presence of compound combinations with an expected value calculated using the multiplicative hypothesis. This method assumes that, in the absence of an interaction, each compound would decrease the OD of the cell culture by the same fraction in the presence of the other compound as it does when applied alone (that is, E=A×B/C, where E is the expected OD, A is OD when compound A is applied alone, B is OD when compound B is applied alone, and C is OD of the control culture (DMSO). In the presence of synergy, the actual OD value is lower than the expected OD. A paired t test was used to confirm statistical significance of this difference in three replicates of the experiment."}}, "note": "Values joined by “and” are separate entries in the source; they are usually repeats but may differ in a detail not shown here. Equal values may be shown once.", "data": [{"smiles": "COc1cc(/C=C/c2cc(/C=C/C(=O)O)cc(OC)c2O)ccc1O", "note": "[poacic acid, (E)-4-Hydroxy-3-{2-[(E)-4-hydroxy-3-methoxystyryl]}-5-methoxycinnamic acid]", "values": [{"measurement": "bioactivity against S. cerevisiae", "setting": "[1]", "value": "greatest antifungal activity"}, {"measurement": "bioactivity against S. cerevisiae", "setting": "[1]; listed as Poacic acid", "value": "highest bioactivity"}, {"measurement": "IC50", "setting": "[1]; Saccharomyces cerevisiae, read-out: IC50 (growth rate inhibition)", "value": "111 µg/mL and 324 µM"}, {"measurement": "colony radial growth on agar plates", "setting": "[2]", "value": "dose-dependent decrease"}, {"measurement": "fungal mass (mycelia weight) in liquid culture", "setting": "[2]", "value": "dose-dependent decrease"}, {"measurement": "14C-glucose incorporation into the β-1,3-glucan layer", "setting": "[3]", "value": "significantly less 14C-glucose incorporation"}, {"measurement": "synergy with methyl methanesulfonate (MMS)", "setting": "[4]", "value": "not synergistic"}, {"measurement": "synergy with caspofungin", "setting": "[4]; poacic acid 125 μg/mL + caspofungin 12.5 ng/mL, 24 h, P<0.05", "value": "significant synergistic effects"}, {"measurement": "synergy with fluconazole", "setting": "[4]; poacic acid 125 μg/mL + fluconazole 3.8 μg/mL, 24 h, P<0.01", "value": "significant synergy"}, {"measurement": "synergy with staurosporine", "setting": "[4]; poacic acid 125 μg/ml + staurosporine 100 ng/ml", "value": "synergy"}]}]}
